We go through one compound from patent US20240010726A1, “LFA-1 SIGNALLING MEDIATOR FOR USE IN CANCER THERAPY” (Universität Basel, priority 2020, published 2024).

Data set [1] concerns murine WT and LFA-1^−/− CTLs. As to the kind of experiment: Glycolytic switch of murine WT and LFA-1−/− CTLs. It is filed as cell-based. The following applies: anti-CD3/28 Ab; 0 mM vs 1.2 mM Mg^2+. How it is done: FIG. 3: Magnesium regulates LFA-1 mediated T cell activation and cytotoxicity as well BiTE- and CAR T-cell functionality. (a) Glycolytic switch of murine WT and LFA-1^-/- CTLs upon injection of anti-CD3/28 Ab in medium containing 1.2 mM Mg^2+ and 0 mM Mg^2+, presented as quantification of summarized data with n=4 mice. (b) Calcium flux in WT and LFA-1^-/- Jurkat T cells stimulated with anti-CD3 Ab in 1.2 mM and 0 mM Mg^2+ medium, respectively. Cells were loaded with Fluo4, and signal intensity as recorded by plate reader, was normalized to unstimulated baseline values. […] Quantified results of n=3 mice with 3 technical replicates each. […] The effector to target cell ratio was 3:1. Results are quantified of n=3 mice with 3 technical replicates each. (e) Representative CD11a (LFA-1) surface expression on human naïve and EM CD8 T cells, PHA T cell blasts and REP T cells, assessed by flow cytometry. […] The effector to target cell ratio was 1:1. Data is presented as quantified results of n=5 healthy donors (f, g, h), n=3 healthy donors with 2 technical replicates each or n=1 healthy donor with 4 technical replicates (j). […] Data is presented as quantified results of n=1 healthy donor with 4 technical replicates. […] (p) Abundance of IFNγ in cell culture supernatants corresponding to the conditions depicted in (o) at 24 hours was determined by ELISA (n=8, 3 independent experiments). […]

Data set [2] has as its system T2 target cells. The format is cell-based, human.
Data set [3] deals with human EM CD8 T cells. As to the kind of experiment: Cytometric bead array of cytokines in EM CD8 T cell culture supernatants. It is filed as cell-based. The following applies: Mg^2+-restricted (0 mM) vs 1.2 mM Mg^2+; 24 h. How it is done: FIG. 2: Extracellular magnesium promotes memory-specific activation via LFA-1. Glycolytic switch of human EM CD8 T cells (a) and naïve CD8 T cells (b) subsets upon injection of anti-CD3 Ab only, or anti-CD3 and anti-CD28 Ab, was assessed by metabolic flux analysis in medium containing either 1.2 mM Mg^2+, 0 mM Mg^2+, or medium which was reconstituted from 0 mM to 1.2 mM Mg^2+ immediately prior to activation (0→1.2 mM Mg^2+). (a) Results for human effector memory (EM) and (b) for human naïve CD8 T cells. Glycolytic switch was quantified by subtracting […] measurements. (c) Flow cytometric analysis of surface activation markers on human EM CD8 T cells 24 hours after activation by plate-bound anti-CD3 Ab and soluble anti-CD28 Ab, in 1.2 mM and 0 mM Mg^2+ media, respectively. (d) Abundance of inflammatory cytokines in corresponding EM CD8 T cell culture supernatants, determined by CBA. (e) CD11a (LFA-1) surface expression on human naïve and EM CD8 T cells as well PHA T cell blasts. Flow cytometry-based assessment of total LFA-1 expression assessed by mAb TS2/4 (f), closed conformation of αL by mAb HI111 (g), extended conformation of LFA-1 by mAb Kim127 (h), open head-piece conformation of LFA-1 by mAb m24 (i), phosphorylation of focal adhesion kinase (FAK) […] as well TNF expression (k)±TCR-induced activation in different extracellular Mg^2+ concentrations. (l) Flow cytometry-based assessment of LFA-1 with open-head piece conformation on human EM and naïve CD8 T cells using the open head-piece reporter mAb m24. (m) Assessment of glycolytic switch of EM CD8 T cells. (n) Assessment of glycolytic switch of naïve CD8 T cells. […] Cytokine concentrations in cell culture supernatants were determined using the LegendPlex cytrometric bead Array human […]) according to manufacturer's instructions.

Consider `[Mg+2]` [Mg^2+, Magnesium], for which, in data set [1], the “Glycolytic switch of LFA-1^−/− CTLs” value was “independent from extracellular Mg^2+ concentrations” and the “Glycolytic switch of WT CTLs” value was “reduced glycolytic switching”. Moreover, in data set [2], the “Cytotoxicity of REP T cells (caspase-3 activity in T2 target cells)” value is “significantly increased”. In data set [3], the IFNγ secretion result is reported as “decreased production”, the IL-2 secretion result is listed as “decreased production” and the TNF secretion result is reported as “decreased production”.
